According to the CheMixHub viscosity set:

Assay: xn = mol fraction of the nth substance listed

CCCCC + CO
Conditions | viscosity [mPa·s]
293.15 K, 101 kPa, x1 = 0.0471 | 0.5884
293.15 K, 101 kPa, x1 = 0.0999 | 0.5839
293.15 K, 101 kPa, x1 = 0.1602 | 0.5769
293.15 K, 101 kPa, x1 = 0.2288 | 0.5663
293.15 K, 101 kPa, x1 = 0.3074 | 0.5509
293.15 K, 101 kPa, x1 = 0.3999 | 0.5282
293.15 K, 101 kPa, x1 = 0.5084 | 0.4953
293.15 K, 101 kPa, x1 = 0.6397 | 0.4464
293.15 K, 101 kPa, x1 = 0.7999 | 0.3733
298.15 K, 101.33 kPa, x2 = 0.0464 | 0.245
298.15 K, 101.33 kPa, x2 = 0.0696 | 0.249
298.15 K, 101.33 kPa, x2 = 0.1597 | 0.265
298.15 K, 101.33 kPa, x2 = 0.2228 | 0.279
298.15 K, 101.33 kPa, x2 = 0.4412 | 0.327
298.15 K, 101.33 kPa, x2 = 0.6294 | 0.384
298.15 K, 101.33 kPa, x2 = 0.741 | 0.424
298.15 K, 101.33 kPa, x2 = 0.7958 | 0.445
298.15 K, 101.33 kPa, x2 = 0.9419 | 0.518
298.15 K, 101.33 kPa, x2 = 0.9734 | 0.537
303.15 K, 101 kPa, x1 = 0.0471 | 0.5267
303.15 K, 101 kPa, x1 = 0.0999 | 0.5186
303.15 K, 101 kPa, x1 = 0.1602 | 0.5081
303.15 K, 101 kPa, x1 = 0.2288 | 0.4945
303.15 K, 101 kPa, x1 = 0.3074 | 0.4767
303.15 K, 101 kPa, x1 = 0.3999 | 0.4529
303.15 K, 101 kPa, x1 = 0.5084 | 0.421
303.15 K, 101 kPa, x1 = 0.6397 | 0.3765
303.15 K, 101 kPa, x1 = 0.7999 | 0.3135
313.15 K, 101 kPa, x1 = 0.0471 | 0.5012
313.15 K, 101 kPa, x1 = 0.0999 | 0.4866
313.15 K, 101 kPa, x1 = 0.1602 | 0.4694
313.15 K, 101 kPa, x1 = 0.2288 | 0.4492
313.15 K, 101 kPa, x1 = 0.3074 | 0.4254
313.15 K, 101 kPa, x1 = 0.3999 | 0.3963
313.15 K, 101 kPa, x1 = 0.5084 | 0.3607
313.15 K, 101 kPa, x1 = 0.6397 | 0.3156
313.15 K, 101 kPa, x1 = 0.7999 | 0.2574

CCCCCCCO + CO
viscosity [mPa·s], 101 kPa
Conditions | 298.15 K | 308.15 K | 318.15 K
x2 = 0.05 | 5.378 | 3.995 | 2.975
x2 = 0.1 | 4.999 | 3.737 | 2.809
x2 = 0.15 | 4.634 | 3.487 | 2.647
x2 = 0.2 | 4.284 | 3.246 | 2.488
x2 = 0.25 | 3.949 | 3.013 | 2.332
x2 = 0.3 | 3.627 | 2.788 | 2.179
x2 = 0.35 | 3.319 | 2.571 | 2.028
x2 = 0.4 | 3.025 | 2.362 | 1.88
x2 = 0.45 | 2.744 | 2.161 | 1.735
x2 = 0.5 | 2.475 | 1.967 | 1.592
x2 = 0.55 | 2.22 | 1.78 | 1.453
x2 = 0.6 | 1.978 | 1.602 | 1.317
x2 = 0.65 | 1.75 | 1.431 | 1.184
x2 = 0.7 | 1.534 | 1.267 | 1.056
x2 = 0.75 | 1.333 | 1.113 | 0.9327
x2 = 0.8 | 1.145 | 0.9661 | 0.815
x2 = 0.85 | 0.9716 | 0.8284 | 0.7037
x2 = 0.9 | 0.8131 | 0.6998 | 0.5997
x2 = 0.95 | 0.6699 | 0.5807 | 0.504

CCN(CC)S(C)(=O)=O + CO
303.15 K, 101.33 kPa
Conditions | viscosity [mPa·s]
x1 = 0.065 | 60400
x1 = 0.1394 | 73000
x1 = 0.2155 | 88400
x1 = 0.2885 | 103400
x1 = 0.3717 | 123400
x1 = 0.4509 | 145100
x1 = 0.5148 | 164500
x1 = 0.5856 | 187800
x1 = 0.6922 | 228900
x1 = 0.7686 | 263600
x1 = 0.8304 | 295600
x1 = 0.9084 | 341400

CS(C)=O + CO
Conditions | viscosity [mPa·s]
298.15 K, 101 kPa, x1 = 0.2 | 0.705
298.15 K, 101 kPa, x1 = 0.4 | 0.942
298.15 K, 101 kPa, x1 = 0.6 | 1.212
298.15 K, 101 kPa, x1 = 0.8 | 1.581
298.15 K, 101.3 kPa, x1 = 0.0439 | 0.583
298.15 K, 101.3 kPa, x1 = 0.093 | 0.616
298.15 K, 101.3 kPa, x1 = 0.1279 | 0.642
298.15 K, 101.3 kPa, x1 = 0.2139 | 0.708
298.15 K, 101.3 kPa, x1 = 0.2908 | 0.792
298.15 K, 101.3 kPa, x1 = 0.3809 | 0.884
298.15 K, 101.3 kPa, x1 = 0.4902 | 1.03
298.15 K, 101.3 kPa, x1 = 0.6224 | 1.259
298.15 K, 101.3 kPa, x1 = 0.7858 | 1.564
298.15 K, 101.3 kPa, x1 = 0.8923 | 1.768
298.15 K, 101.3 kPa, x1 = 0.9667 | 1.923
298.15 K, 101.31 kPa, x1 = 0.1531 | 0.66
298.15 K, 101.31 kPa, x1 = 0.1961 | 0.695
298.15 K, 101.31 kPa, x1 = 0.2939 | 0.792
298.15 K, 101.31 kPa, x1 = 0.4044 | 0.917
298.15 K, 101.31 kPa, x1 = 0.533 | 1.064
298.15 K, 101.31 kPa, x1 = 0.6303 | 1.201
298.15 K, 101.31 kPa, x1 = 0.7167 | 1.379
298.15 K, 101.31 kPa, x1 = 0.817 | 1.586
298.15 K, 101.31 kPa, x1 = 0.8886 | 1.737
299 K, 101 kPa, x1 = 0.0375 | 0.9137
299 K, 101 kPa, x1 = 0.119 | 1.048
299 K, 101 kPa, x1 = 0.2599 | 1.264
299 K, 101 kPa, x1 = 0.3691 | 1.384
299 K, 101 kPa, x1 = 0.4937 | 1.964
299 K, 101 kPa, x1 = 0.7172 | 2.348
303.15 K, 101.3 kPa, x1 = 0.0439 | 0.544
303.15 K, 101.3 kPa, x1 = 0.093 | 0.566
303.15 K, 101.3 kPa, x1 = 0.1279 | 0.583
303.15 K, 101.3 kPa, x1 = 0.2139 | 0.661
303.15 K, 101.3 kPa, x1 = 0.2908 | 0.741
303.15 K, 101.3 kPa, x1 = 0.3809 | 0.82
303.15 K, 101.3 kPa, x1 = 0.4902 | 0.937
303.15 K, 101.3 kPa, x1 = 0.6224 | 1.11
303.15 K, 101.3 kPa, x1 = 0.7858 | 1.368
303.15 K, 101.3 kPa, x1 = 0.8923 | 1.573
303.15 K, 101.3 kPa, x1 = 0.9667 | 1.713
308.15 K, 101.31 kPa, x1 = 0.1531 | 0.581
308.15 K, 101.31 kPa, x1 = 0.1961 | 0.612
308.15 K, 101.31 kPa, x1 = 0.2939 | 0.694
308.15 K, 101.31 kPa, x1 = 0.4044 | 0.798
308.15 K, 101.31 kPa, x1 = 0.533 | 0.92
308.15 K, 101.31 kPa, x1 = 0.6303 | 1.03
308.15 K, 101.31 kPa, x1 = 0.817 | 1.336
308.15 K, 101.31 kPa, x1 = 0.8886 | 1.454
318.15 K, 101.31 kPa, x1 = 0.1531 | 0.514
318.15 K, 101.31 kPa, x1 = 0.1961 | 0.544
318.15 K, 101.31 kPa, x1 = 0.2939 | 0.613
318.15 K, 101.31 kPa, x1 = 0.533 | 0.804
318.15 K, 101.31 kPa, x1 = 0.6303 | 0.894
318.15 K, 101.31 kPa, x1 = 0.817 | 1.141
318.15 K, 101.31 kPa, x1 = 0.8886 | 1.194

C[N+](C)(C)CCC[n+]1ccccc1.N#C[N-]C#N.N#C[N-]C#N + CO
viscosity [mPa·s], 100 kPa
Conditions | 293.15 K | 303.15 K | 313.15 K
x1 = 0.2001 | – | 11.45 | –
x1 = 0.8995 | 952.8 | – | 198.5

O=C(O)C=Cc1ccccc1 + CO
viscosity [mPa·s]
Conditions | 308.15 K | 313.15 K | 318.15 K | 323.15 K
101 kPa, x1 = 0.075 | 0.8921 | – | – | 0.7246
101 kPa, x1 = 0.084 | 0.9758 | – | – | 0.7679
101 kPa, x1 = 0.0887 | 1.014 | – | – | 0.797
101 kPa, x1 = 0.0981 | 1.092 | – | – | 0.846
101.33 kPa, x1 = 0.075 | 0.891 | 0.8453 | 0.7855 | 0.7246
101.33 kPa, x1 = 0.0981 | 1.092 | 1.003 | 0.9163 | 0.846
